Assay [1] has as its target Kappa-type opioid receptor (Mus musculus, UniProt P33534). In words: Displacement of [3H]diprenorphine from mouse KOR expressed in CHO cells assessed as dissociation constant incubated for […] by radioligand binding assay. The format is cell-based.
The target of assay [2] is Mu-type opioid receptor (Mus musculus, UniProt P42866). In words: Displacement of [3H]Naloxone from mouse MOR expressed in CHO cells assessed as dissociation constant incubated for […] by radioligand binding assay. It is filed as cell-based. Background: Displacement assays read how much labelled ligand stays bound in the presence of the test substance.
Chain of Mu-type opioid receptor (P42866 whole entry): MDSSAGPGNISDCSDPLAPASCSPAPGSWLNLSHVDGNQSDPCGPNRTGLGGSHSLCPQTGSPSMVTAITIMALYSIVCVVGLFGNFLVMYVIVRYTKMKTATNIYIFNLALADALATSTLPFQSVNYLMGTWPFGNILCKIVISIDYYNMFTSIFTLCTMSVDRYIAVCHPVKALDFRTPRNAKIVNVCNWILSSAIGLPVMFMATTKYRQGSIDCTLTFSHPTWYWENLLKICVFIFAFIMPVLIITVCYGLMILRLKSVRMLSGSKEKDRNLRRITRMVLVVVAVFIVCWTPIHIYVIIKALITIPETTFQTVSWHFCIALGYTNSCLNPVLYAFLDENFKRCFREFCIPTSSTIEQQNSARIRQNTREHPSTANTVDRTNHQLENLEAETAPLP
Assay [3] has as its target T1, Delta-type opioid receptor (Homo sapiens, UniProt P41143). The assay is described as follows: Displacement of [3H]diprenorphine from human DOR expressed in CHO cells assessed as dissociation constant incubated for […] by radioligand binding assay. It is filed as cell-based.
The subject of assay [4] is Mus musculus. The assay is described as follows: Antinociception activity in male Swiss Webster mouse model assessed as increase in maximum possible effect at 10 mg/kg, sc measured after 20 mins by warm-water tail immersion assay relative to control. The format is functional.
For assay [5], the system named is Mus musculus. The assay is described as follows: Antinociception activity in male Swiss Webster mouse model assessed as increase in maximum possible effect at 10 mg/kg, sc administered as single dose measured after 20 mins in presence of morphine by warm-water tail immersion assay relative to control. The format is functional.
In assay [6] the target is T1, Delta-type opioid receptor. The assay is described as follows: Binding affinity to DOR (unknown origin) assessed as dissociation constant.
In assay [7] the test system is Mus musculus. The assay is described as follows: Antinociception activity in male Swiss Webster mouse model assessed as effective dose administered as sc dose measured after 20 mins by warm-water tail immersion assay. It is filed as functional.
Assay [8] addresses T1, Delta-type opioid receptor.
Assay [9] addresses T1, Delta-type opioid receptor. In words: Agonist activity at human DOR expressed in CHO cells increase in [35S]GTPgammaS binding measured after […] by scintillation counter analysis relative to SNC80. The format is functional, cell-based. Particulars: filed as agonist. In general terms: Binding of GTPγS marks nucleotide exchange on a G protein.
Assay [10] concerns Mus musculus. The assay is described as follows: Antinociception activity in male Swiss Webster mouse model assessed as increase in maximum possible effect at 0.05 mg/kg, sc measured after 30 to 60 mins post injection by warm-water tail immersion assay. The format is functional, organism-based. Particulars: time 30-60 min.
Assay [11] concerns Mus musculus. The assay is described as follows: Antinociception activity in male Swiss Webster mouse model assessed as increase in maximum possible effect at 0.05 mg/kg, sc measured after 3 to 5 hrs post injection by warm-water tail immersion assay. The format is functional, organism-based. As to conditions: time 3-5 hrs.
The species entered for assay [12] is Mus musculus. The assay is described as follows: Selectivity ratio of Kd for mouse MOR to Kd for mouse KOR.

The source made the active and inactive calls. The rule behind the calls is not given here.

T1 sequence (P41143 whole entry): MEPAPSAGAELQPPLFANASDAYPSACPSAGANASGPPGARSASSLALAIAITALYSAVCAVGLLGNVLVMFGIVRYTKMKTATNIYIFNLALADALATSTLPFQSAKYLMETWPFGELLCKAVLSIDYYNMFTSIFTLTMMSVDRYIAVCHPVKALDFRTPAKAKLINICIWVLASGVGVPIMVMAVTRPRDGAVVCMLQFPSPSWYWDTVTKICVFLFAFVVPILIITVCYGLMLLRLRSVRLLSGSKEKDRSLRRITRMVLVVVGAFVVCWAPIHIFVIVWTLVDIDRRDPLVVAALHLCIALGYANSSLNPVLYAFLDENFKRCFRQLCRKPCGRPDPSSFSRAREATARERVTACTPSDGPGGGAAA
Chain of Kappa-type opioid receptor (P33534 whole entry): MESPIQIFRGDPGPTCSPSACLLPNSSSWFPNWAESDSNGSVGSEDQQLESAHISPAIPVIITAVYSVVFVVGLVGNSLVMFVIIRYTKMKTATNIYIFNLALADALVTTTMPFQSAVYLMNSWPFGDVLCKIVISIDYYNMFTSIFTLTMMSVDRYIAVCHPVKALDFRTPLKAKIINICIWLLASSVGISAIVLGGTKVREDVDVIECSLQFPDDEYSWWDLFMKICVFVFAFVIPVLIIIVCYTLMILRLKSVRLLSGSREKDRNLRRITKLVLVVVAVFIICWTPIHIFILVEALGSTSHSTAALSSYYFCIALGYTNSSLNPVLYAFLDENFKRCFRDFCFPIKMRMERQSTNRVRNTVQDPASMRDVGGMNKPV

What is called Kd is a measure of binding affinity in units of concentration. For `Cl.O=C(/C=C/c1ccco1)N[C@H]1CC[C@@]2(O)[C@H]3Cc4ccc(O)c5c4[C@@]2(CCN3CC2CC2)[C@H]1O5`, the dissociation constant (Kd) was 1.08 nM in [1], 0.53 nM in assay [2] and 8.75 nM in assay [3]. The MPE in assay [4] was determined as 100%.

On to `C=CCN1CC[C@]23c4c5ccc(O)c4O[C@H]2C(=O)CC[C@@]3(O)[C@H]1C5` [NALOXONE], for which, in [5], the MPE result is on record as “<=40%”.

Turning to `Cl.O=C(CCc1ccco1)N[C@H]1CC[C@@]2(O)[C@H]3Cc4ccc(O)c5c4[C@@]2(CCN3CC2CC2)[C@H]1O5`, the Kd in assay [2] stood at 0.72 nM. In addition, the MPE entry in assay [4] is on record as “<=40%”.

`CN(C(=O)CCc1ccoc1)[C@@H]1CC[C@@]2(O)[C@H]3Cc4ccc(O)c5c4[C@@]2(CCN3CC2CC2)[C@H]1O5.Cl`: the Kd in [1] amounted to 0.28 nM; in assay [2], 0.53 nM; in assay [3] it was 8.42 nM. Moreover, in assay [4], the MPE is on record as 100%.

Consider `CN(C(=O)CCc1ccoc1)[C@H]1CC[C@@]2(O)[C@H]3Cc4ccc(O)c5c4[C@@]2(CCN3CC2CC2)[C@H]1O5.Cl`, for which the Kd worked out at 0.13 nM in [1], 0.18 nM in [2] and 0.59 nM in assay [3]. Moreover, the MPE in [4] worked out at 40%.

Turning to `Cl.O=C(CCc1ccoc1)N[C@@H]1CC[C@@]2(O)[C@H]3Cc4ccc(O)c5c4[C@@]2(CCN3CC2CC2)[C@H]1O5`, in assay [2], the Kd was 0.21 nM. Moreover, the MPE entry in assay [4] is “<=40%”.

As to `Cl.O=C(CCc1ccco1)N[C@H]1CC[C@@]2(O)[C@H]3Cc4cccc5c4[C@@]2(CCN3CC2CC2)[C@H]1O5`, the Kd in assay [1] was determined as 73.8 nM; in assay [2] it was 53.1 nM; in [3] it was 90.2 nM. The MPE result in [4] is reported as “<=40%”; in assay [5], 80%.

The term ED50 denotes the midpoint of the dose-response relation. Broadly, the EC50 is the concentration needed to bring the measured effect to its halfway point. With `CN(C(=O)/C=C/c1ccoc1)[C@H]1CC[C@@]2(O)[C@H]3Cc4ccc(O)c5c4[C@@]2(CCN3CC2CC2)[C@H]1O5.Cl`, the Kd in assay [6] amounted to 0.64 nM. Also, the MPE in assay [4] stood at 100%. Further, the ED50 in [7] worked out at 0.037 mg/kg. The molecule further came in with an EC50 in [8] of 2.68 nM.

Regarding `CN(C(=O)CCc1ccco1)[C@H]1CC[C@@]2(O)[C@H]3Cc4cccc5c4[C@@]2(CCN3CC2CC2)[C@H]1O5.Cl`, the values for the Kd in assay [1], in assay [2] and in assay [3] were 1 nM, 14.1 nM and 46.8 nM, respectively. Further, in [4], the MPE worked out at 40%.

As usually defined, the Emax is the greatest response seen or fitted, relative to the assay's reference. Take `CN(C(=O)/C=C/c1ccco1)[C@H]1CC[C@@]2(O)[C@H]3Cc4cccc5c4[C@@]2(CCN3CC2CC2)[C@H]1O5.Cl`: the Kd was 0.62 nM in assay [1], 16.8 nM in assay [2] and 68.4 nM in assay [3]. Moreover, the MPE in assay [4] is 80%. Moreover, in [9], the Emax was 102%.

For `CN1CC[C@]23c4c5ccc(O)c4O[C@H]2[C@@H](O)C=C[C@H]3[C@H]1C5`, in assay [10], the result was Active. The outcome in assay [11] was inactive.

With `CN(C(=O)CCc1ccco1)[C@@H]1CC[C@@]2(O)[C@H]3Cc4cccc5c4[C@@]2(CCN3CC2CC2)[C@H]1O5.Cl`, the Kd in [1] came to 50.4 nM; in [2], 93.6 nM; in assay [3], 532 nM. Also, the MPE in assay [4] was found to be 40%.

For `Cl.O=C(/C=C/c1ccco1)N[C@H]1CC[C@@]2(O)[C@H]3Cc4cccc5c4[C@@]2(CCN3CC2CC2)[C@H]1O5`, the Kd is 249 nM in assay [1], 107 nM in assay [2] and 456 nM in [3]. Also, the Ratio in [12] came out at 0. In addition, the MPE result in assay [4] was “<=40%”; in assay [5] it was 100%.

As for `CN(C(=O)CCc1ccoc1)[C@H]1CC[C@@]2(O)[C@H]3Cc4cccc5c4[C@@]2(CCN3CC2CC2)[C@H]1O5.Cl`, the Kd in assay [1] came to 0.48 nM; in assay [2], 7.74 nM; in [3], 48.6 nM. In addition, in [4], the MPE turned out to be 80%.

Consider `CN(C(=O)/C=C/c1ccco1)[C@@H]1CC[C@@]2(O)[C@H]3Cc4cccc5c4[C@@]2(CCN3CC2CC2)[C@H]1O5.Cl`, for which the results for the Kd in [1], in [2] and in assay [3] were 4.11 nM, 215 nM and 2260 nM, respectively. For the same molecule, the MPE in [4] came out at 40%. For the same molecule, in assay [9], the Emax was found to be 82.1%.

Regarding `CN(C(=O)CCc1ccco1)[C@@H]1CC[C@@]2(O)[C@H]3Cc4ccc(O)c5c4[C@@]2(CCN3CC2CC2)[C@H]1O5.Cl`, the Kd in assay [1] stood at 0.32 nM; in assay [2], 0.66 nM; in assay [3], 7.32 nM. For the same molecule, the MPE in [4] came out at 100%.

As to `CN(C(=O)CCc1ccoc1)[C@@H]1CC[C@@]2(O)[C@H]3Cc4cccc5c4[C@@]2(CCN3CC2CC2)[C@H]1O5.Cl`, the Kd in assay [1] was 34.5 nM; in [2], 43.8 nM; in assay [3] it was 891 nM. For the same molecule, the MPE entry in [4] is “<=40%”; in [5] it was 100%.

Regarding `Cl.O=C(CCc1ccco1)N[C@@H]1CC[C@@]2(O)[C@H]3Cc4ccc(O)c5c4[C@@]2(CCN3CC2CC2)[C@H]1O5`, the Kd in assay [1] was 0.61 nM; in assay [2], 0.28 nM; in [3], 33 nM. Also, the values for the MPE result in assay [4] and in assay [5] were “<=40%” and 40%, respectively.

Consider `Cl.O=C(/C=C/c1ccco1)N[C@@H]1CC[C@@]2(O)[C@H]3Cc4cccc5c4[C@@]2(CCN3CC2CC2)[C@H]1O5`, for which the Kd in [1] is 7.03 nM; in assay [2], 42.4 nM; in assay [3] it was 551 nM. Besides, the values for the MPE entry in assay [4] and in assay [5] were “<=40%” and 100%, respectively. The molecule further registered an Emax in assay [9] of 81%.

Take `Cl.O=C(CCc1ccoc1)N[C@H]1CC[C@@]2(O)[C@H]3Cc4cccc5c4[C@@]2(CCN3CC2CC2)[C@H]1O5`: the results for the Kd in [1], in assay [2] and in assay [3] were 161 nM, 54.5 nM and 154 nM, respectively. Further, in assay [12], the Ratio stood at 0. Besides, the MPE result is listed as “<=40%” in assay [4] and 80% in assay [5]. The Emax in assay [9] was 93.1%.

Turning to `CN(C(=O)CCc1ccco1)[C@H]1CC[C@@]2(O)[C@H]3Cc4ccc(O)c5c4[C@@]2(CCN3CC2CC2)[C@H]1O5.Cl`, the Kd in assay [1] stood at 0.12 nM; in assay [2], 0.15 nM; in assay [3] it was 0.37 nM. Moreover, the MPE in assay [4] turned out to be 100%.

As to `Cl.O=C(CCc1ccco1)N[C@@H]1CC[C@@]2(O)[C@H]3Cc4cccc5c4[C@@]2(CCN3CC2CC2)[C@H]1O5`, the values for the Kd in [1], in [2] and in assay [3] were 23.6 nM, 27.5 nM and 800 nM, respectively. Also, the MPE in assay [4] turned out to be 40%.

Regarding `Cl.O=C(/C=C/c1ccco1)N[C@@H]1CC[C@@]2(O)[C@H]3Cc4ccc(O)c5c4[C@@]2(CCN3CC2CC2)[C@H]1O5`, the Kd in assay [1] turned out to be 0.17 nM; in assay [2], 0.3 nM; in assay [3], 12.8 nM. Further, the MPE in [4] is listed as 80%.

On to `Cl.O=C(CCc1ccoc1)N[C@H]1CC[C@@]2(O)[C@H]3Cc4ccc(O)c5c4[C@@]2(CCN3CC2CC2)[C@H]1O5`, for which the Kd in [2] came to 0.44 nM. Besides, the MPE result in [4] is “<=40%”; in assay [5], 100%.

In the case of `Cl.O=C(CCc1ccoc1)N[C@@H]1CC[C@@]2(O)[C@H]3Cc4cccc5c4[C@@]2(CCN3CC2CC2)[C@H]1O5`, the Kd in assay [1] stood at 8.37 nM; in assay [2] it was 17.3 nM; in assay [3] it was 749 nM. The MPE in [4] is 40%.

For the origin of these results see ChEMBL document CHEMBL5506068 (J Med Chem, 2024).
